Results on three compounds are retold here after patent US9198925B2, “Pharmaceutical formulations containing an SGLT2 inhibitor” (AstraZeneca AB, priority 2007, dated 2015).

SMILES strings stand for the structures. Read-outs that look alike come from different tables or passages of the source.

Test [1] has as its system healthy subjects. To be noted: single ascending dose study, cited from earlier work.
Test [2] concerns treatment naive type II diabetes mellitus patients. The test is described as follows: 12-week study of weight loss and glucosuria in patients with type II diabetes. It counts as in vivo, human. To be noted: for Mean reduction in BMI: absolute change. The procedure:
Treatment naive type II diabetes mellitus patients, n=389, with inadequate blood glycemic control and low mean glucosuria at baseline were given once-daily oral treatments with dapagliflozin propylene glycol hydrate (2.5, 5, 10, 20, or 50 mgs), metformin XR® (750 mg titrated to 1500 mgs), or placebo over 12-weeks.

In test [3] the test system is diet-induced obese (DIO) rats. To be noted: oral 1, 5 or 10 mg/kg, urine volume x glucose concentration.
Description: Obesity was induced in male Sprague-Dawley rats (mean baseline weight=220 g) via ad libitum access to 2 diets: normal diet (Harlan Teklad rat chow; 3.5 kcal/gm, 5% vegetable fat) and high-sucrose/high-fat diet (Research Diets D12327; 4.6 kcal/gm, 40% sucrose and 40% vegetable fat).
Urine volume and glucose concentration were used to determine total urine glucose loss over 24 hours post dose.
Total glucose lost was calculated as volume of urine x glucose concentration.
The test system of test [4] is subjects with type 2 diabetes. To be noted: 14-day multiple dose. The procedure:
(§1) Patients with type 2 diabetes were treated with placebo, 5 mg dapagliflozin propylene glycol hydrate, 25 mg dapagliflozin propylene glycol hydrate, or 100 mg dapagliflozin propylene glycol hydrate.

The subject of test [5] is healthy subjects. Particulars: single ascending dose study. The method, then:
as §1

Test [6] deals with diet-induced obese (DIO) rats.
Excerpt: Obesity was induced in male Sprague-Dawley rats (mean baseline weight=220 g) via ad libitum access to 2 diets: normal diet (Harlan Teklad rat chow; 3.5 kcal/gm, 5% vegetable fat) and high-sucrose/high-fat diet (Research Diets D12327; 4.6 kcal/gm, 40% sucrose and 40% vegetable fat). Rats under these conditions typically consume approximately 30 g/day of the high-sucrose/high-fat chow and 2 g/day of the normal Harlan Teklad rat chow.
DIO rats were sorted into treatment groups based on body weight, total kilocalories consumed, and body composition (via echo MRI). […] Body weight and the weight of both diets were determined daily. Respiratory quotient data were obtained on days 2 and 15 of the study, echo MRI was obtained on day 22, and blood was collected for a fasting clinical chemistry tests on day 27.
Percent weight changes were calculated as daily weight—day 0 weight×100.
[7] abbreviates: metformin XR 750 mg titrated to 1500 mgs, 12 weeks, n = 56.
Setting [8] is: 2.5 mgs once daily, 12 weeks, n = 59.
Setting [9] is: 5 mgs once daily, 12 weeks, n = 58.
The mark [10] stands for this setting: 10 mgs once daily, 12 weeks, n = 47.
Setting [11] is: 20 mgs once daily, 12 weeks, n = 59.
[12] abbreviates: 50 mgs once daily, 12 weeks, n = 56.

For the compound `CCOC(=O)OC[C@H]1O[C@@H](Oc2ccccc2Cc2ccc(OC)cc2)[C@H](O)[C@@H](O)[C@@H]1O` [GSK 869,682], the “amount of glucose excretion/day” value in the test on healthy subjects [1] (50 mg) was “approximately 5 g”; with healthy subjects [1] (100 mg), about 6 g; with healthy subjects [1] (200 mg), about 12 g; in the test on healthy subjects [1] (500 mg), about 16 g.
For `CN(C)C(=N)N=C(N)N` [Metformin, metformin, reference compound], in test [2] (setting [7]), the “Mean reduction in BMI” value is on record as −0.5 and the “Mean reduction in weight (%)” value is on record as −1.7%. In addition, the “mean glucosuria at week 12” value in test [2] (type II diabetes patients, metformin XR 750 mg titrated to 1500 mgs, week 12) was found to be 5.6 grams/day.
Turning to `CCOc1ccc(Cc2cc([C@@H]3O[C@H](CO)[C@@H](O)[C@H](O)[C@H]3O)ccc2Cl)cc1.C[C@H](O)CO.O` [dapagliflozin propylene glycol hydrate], the “total amount of glucose lost in urine over 24 hours post dose” value in test [3] is “significantly increased with increasing doses”. Further, the “24-hour urine glucose excretion compared to placebo” value in test [4] (5 mg), in test [4] (25 mg) and in test [4] (100 mg) was “significantly higher” each time. Besides, the “amount of glucose excretion/day” value is given as “approximately 30 g” in the test on healthy subjects [5] (5 mg), about 55 g with healthy subjects [5] (20 mg), about 60 g in the test with healthy subjects [5] (50 mg) and about 70 g with healthy subjects [5] (100 mg). Further, the “body weight loss versus vehicle” value in test [6] (oral 0.5, 1 or 5 mpk, administered daily over 25 days, p<0.05 versus vehicle) is listed as “significant weight loss”. Further, the “body weight loss when compound-induced overeating was prevented (pair fed to vehicle group)” value in test [6] (pair fed subgroup, compared with ad libitum treated rats) is recorded as “the weight loss was greater”. The “Mean reduction in weight (%)” value in test [2] (setting [8]) is recorded as −2.7%; in test [2] (setting [9]), −2.5%; in test [2] (setting [10]) it was −2.7%; in test [2] (setting [11]) it was −3.4%; in test [2] (setting [12]), −3.4%. The “Mean reduction in BMI” value is reported as −0.9 in test [2] (setting [8]); −0.8 in test [2] (setting [9]); −0.8 in test [2] (setting [10]); −1.0 in test [2] (setting [11]); −1.1 in test [2] (setting [12]). Besides, the “proportion of patients who achieved a 5% weight reduction, versus placebo” value in test [2] (each dose group (2.5, 5, 10, 20, 50 mgs), 12 weeks) is “higher proportion”.
